Source: US20070129367A1, “Pyridine derivatives as cb2 receptor modulators” (priority 2002, published 2007)
Where two headings read alike, the source gives them in different places.

Target: T1, human cannabinoid CB2 receptor (Homo sapiens, UniProt P34972)
T1 construct: expressed in transfected cells; host or cells: Saccharomyces cerevisiae strain MMY23 (cassette integrated at the ura3 locus, GPD promoter)
Assay: Cannabinoid CB2 receptor agonist activity in yeast (Saccharomyces cerevisiae) cells expressing the receptor, FDGlu fluorescence readout;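 as to Emax: percent of the maximal response of the reference agonist HU210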
Format: cell-based
Details: for Emax: read-out: efficacy (Emax) at the cloned human cannabinoid CB2 receptor
Procedure: Determination of Cannabinoid CB2 Receptor Agonist Activity
The cannabinoid CB2 receptor agonist activity of the compounds of formula (I) was determined in accordance with the following experimental method.
Yeast (Saccharomyces cerevisiae) cells expressing the human cannabinoid CB2 receptor were generated by integration of an expression cassette into the ura3 chromosomal locus of yeast strain MMY23. This cassette consisted of DNA sequence encoding the human CB2 receptor flanked by the yeast GPD promoter to the 5′ end of CB2 and a yeast transcriptional terminator sequence to the 3′ end of CB2. MMY23 expresses a yeast/mammalian chimeric G-protein alpha subunit in which the C-terminal 5 amino acids of Gpa1 are replaced with the C-terminal 5 amino acids of human Gαi3 (as described in Brown et aL (2000), Yeast 16:11-22). Cells were grown at 30° C. in liquid Synthetic Complete (SC) yeast media (Guthrie and Fink (1991), Methods in Enzymology, Vol. 194) lacking uracil, tryptophan, adenine and leucine to late logarithmic phase (approximately 6 OD600/ml).
Agonists were prepared as 10 mM stocks in DMSO. […] Agonist solutions in DMSO (1% final assay volume) were transferred into black, clear bottom, microtitre plates from NUNC (96- or 384-well). […] This mixture (50 ul per well for 384-well plates, 200 ul per well for 96-well plates) was added to agonist in the assay plates (Multidrop 384, Labsystems). After incubation at 30° C. for 24 hours, fluorescence resulting from degradation of FDGlu to fluorescein due to exoglucanase, an endogenous yeast enzyme produced during agonist-stimulated cell growth, was determined using a Spectrofluor microtitre plate reader (Tecan; excitation wavelength: 485 nm; emission wavelength: 535 nm). Fluorescence was plotted against compound concentration and iteratively curve fitted using a four parameter fit to generate a concentration effect value. […] Equieffective molar ratio (EMR) values were calculated from the equation EMR=EC50 [compound X]/EC50 [HU210]
Where EC50 [compound X] is the EC50 of compound X and EC50 [HU210] is the EC50 of HU210.

[1] = agonist activity, yeast cells, 24 hours at 30° C., read-out: EC50 at the cloned human cannabinoid CB2 receptor

T1 sequence (P34972 whole entry): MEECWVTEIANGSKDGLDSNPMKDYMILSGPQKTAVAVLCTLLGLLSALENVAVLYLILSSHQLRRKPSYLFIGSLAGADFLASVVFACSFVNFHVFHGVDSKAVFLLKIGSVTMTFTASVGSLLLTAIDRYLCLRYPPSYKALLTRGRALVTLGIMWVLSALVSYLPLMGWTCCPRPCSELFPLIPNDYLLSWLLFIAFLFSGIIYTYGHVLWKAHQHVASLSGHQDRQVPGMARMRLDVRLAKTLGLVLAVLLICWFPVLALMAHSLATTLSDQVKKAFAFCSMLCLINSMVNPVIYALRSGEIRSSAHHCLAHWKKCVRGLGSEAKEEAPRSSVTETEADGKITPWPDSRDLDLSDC

CC(C)c1cc(Nc2ccc(Br)c(Cl)c2)ncc1C(=O)NCc1ccc(F)cc1 [Example 75, 6-(4-Bromo-3-chloro-phenylamino)-N-(4-fluoro-benzyl)-4-isopropyl-nicotinamide]
EC50: 300 to 1000 nM | Emax: > 50%

CC(C)c1cc(Nc2ccc(Cl)cc2F)ncc1C(=O)NCc1ccc(F)cc1 [Example 20, 6-(4-Chloro-2-fluoro-phenylamino)-N-(4-fluoro-benzyl)-4-isopropyl-nicotinamide]
EC50: < 300 nM | Emax: > 50%

CC(C)c1cc(Nc2cc(Cl)ccc2Cl)ncc1C(=O)NCc1ccc(F)cc1 [Example 74, 6-(2,5-Dichloro-phenylamino)-N-(4-fiuoro-benzyl)-4-isopropyl-nicotinamide]
EC50: 300 to 1000 nM | Emax: > 50%

CC(C)c1cc(Nc2cccc(Cl)c2)ncc1C(=O)NCc1ccccc1 [Example 4, N-Benzyl-6-(3-chloro-phenylamino)-4-isopropyl-nicotinamide]
EC50: < 300 nM | Emax: > 50%

CC(C)c1cc(Nc2cccc(C(F)(F)F)c2)ncc1C(=O)NCc1ccc(F)cc1 [Example 14, N-(4-Fluoro-benzyl)-4-isopropyl-6-(3-trifluoromethyl-phenylamino)-nicotinamide]
EC50: 300 to 1000 nM | Emax: > 50%

Cc1ccc(Cl)cc1Nc1cc(C(F)(F)F)c(C(=O)NCc2ccncc2)cn1 [Example 57, N-(Pyridin-4-ylmethyl)-6-(2-methyl-5-chloro-phenylamino)-4-trifluoromethyl-nicotinamide]
EC50: < 300 nM | Emax: > 50%

O=C(NCc1ccc(F)cc1)c1cnc(Nc2cccc(Br)c2)cc1C(F)(F)F [Example 46, N-(4-Fluoro-benzyl)-6-(3-bromo-phenylamino)-4-trifluoromethyl-nicotinamide]
Emax: > 50%

O=C(NCc1ccnc(F)c1)c1cnc(Nc2cc(Cl)cc(Cl)c2)cc1C(F)(F)F [Example 54, N-(2-Fluoro-pyridin-4-ylmethyl)-6-(3,5-dichloro-phenylamino)-4-trifluoromethyl-nicotinamide]
EC50: < 300 nM | Emax: > 50%

Cc1c(Br)cccc1Nc1cc(C(C)C)c(C(=O)NCc2ccc(F)cc2)cn1 [Example 27, 6-(3-Bromo-2-methyl-phenylamino)-N-(4-fluoro-benzyl)-4-isopropyl-nicotinamide]
EC50: 300 to 1000 nM | Emax: > 50%

O=C(NCc1ccnc(F)c1)c1cnc(Nc2cccc(Cl)c2)cc1C(F)(F)F [Example 45, N-(2-Fluoro-pyridin-4-ylmethyl)-6-(3-chloro-phenylamino)-4-trifluoromethyl-nicotinamide]
EC50: < 300 nM | Emax: > 50%

Cc1cccc(Nc2cc(C(C)C)c(C(=O)NCc3ccc(F)cc3)cn2)c1 [Example 29, N-(4-Fluoro-benzyl)-4-isopropyl-6-m-tolylamino-nicotinamide]
EC50: 300 to 1000 nM | Emax: > 50%

O=C(NCc1ccc(F)cc1)c1cnc(Nc2cccc(F)c2)cc1C(F)(F)F [Example 49, N-(4-Fluoro-benzyl)-6-(3-fluoro-phenylamino)-4-trifluoromethyl-nicotinamide]
EC50: < 300 nM | Emax: > 50%

CC(C)c1cc(Nc2ccc(Cl)cc2Cl)ncc1C(=O)NCc1ccc(F)cc1 [Example 22, 6-(2,4-Dichloro-phenylamino)-N-(4-fluoro-benzyl)-4-isopropyl-nicotinamide]
EC50: < 300 nM | Emax: > 50%

Cc1cccc(Nc2cc(C(C)C)c(C(=O)NCc3ccc(F)cc3)cn2)c1C#N [Example 16, 6-(2-Cyano-3-methyl-phenylamino)-N-(4-fluoro-benzyl)-4-isopropyl-nicotinamide]
EC50: 300 to 1000 nM | Emax: > 50%

CC(C)c1cc(Nc2cccc(Cl)c2)ncc1C(=O)NCc1ccc(F)c(F)c1 [Example 7, 6-(3-Chloro-phenylamino)-N-(3,4-difluoro-benzyl)-4-isopropyl-nicotinamide]
EC50: 300 to 1000 nM | Emax: > 50%

Cc1c(Cl)cccc1Nc1cc(C(C)C)c(C(=O)NCc2ccc(F)cc2)cn1 [Example 28, 6-(3-Chloro-2-methyl-phenylamino)-N-(4-fluoro-benzyl)-4-isopropyl-nicotinamide]
EC50: 300 to 1000 nM | Emax: > 50%

Cc1cc(C#N)ccc1Nc1cc(C(C)C)c(C(=O)NCc2ccc(F)cc2)cn1 [Example 73, 6-(4-Cyano-2-methyl-phenylamino)-N-(4-fluoro-benzyl)-4-isopropyl-nicotinamide]
EC50 [1]: < 300 nM

O=C(NCc1ccnc(F)c1)c1cnc(Nc2ccc(Cl)cc2Cl)cc1C(F)(F)F [Example 51, N-(2-Fluoro-pyridin-4-ylmethyl)-6-(2,4-dichloro-phenylamino)-4-trifluoromethyl-nicotinamide]
EC50: < 300 nM | Emax: > 50%

O=C(NCc1ccncc1)c1ccc(Nc2cccc(Cl)c2)nc1C(F)(F)F [Example 78, 6-(3-Chloro-phenylamino)-N-(pyridin-4-ylmethyl)-2-trifluoromethyl-nicotinamide]
EC50: < 300 nM | Emax: > 50%

CC(C)c1cc(Nc2ccc(C#N)c(Cl)c2)ncc1C(=O)NCc1ccc(F)cc1 [Example 23, 6-(3-Chloro-4-cyano-phenylamino)-N-(4-fluoro-benzyl)-4-isopropyl-nicotinamide]
EC50: < 300 nM | Emax: > 50%

CC(C)c1cc(Nc2cc(Cl)ccc2F)ncc1C(=O)NCc1ccc(F)cc1 [Example 72, 6-(5-Chloro-2-fluoro-phenylamino)-N-(4-fluoro-benzyl)-4-isopropyl-nicotinamide]
EC50 [1]: < 300 nM

COc1ccc(CNC(=O)c2cnc(Nc3cccc(Cl)c3)cc2C(C)C)cc1 [Example 6, 6-(3-Chloro-phenylamino)-4-isopropyl-N-(4-methoxy-benzyl)-nicotinamide]
EC50: 300 to 1000 nM | Emax: > 50%

CC(C)c1cc(Nc2cccc(Cl)c2)ncc1C(=O)NCc1ccc(C#N)cc1 [Example 5, 6-(3-Chloro-phenylamino)-N-(4-cyano-benzyl)-4-isopropyl-nicotinamide]
EC50: 300 to 1000 nM | Emax: > 50%

CC(C)c1cc(Nc2ccc(C#N)cc2)ncc1C(=O)NCc1ccc(F)cc1 [Example 18, 6-(4-Cyano-phenylamino)-N-(4-fluoro-benzyl)-4-isopropyl-nicotinamide]
EC50 [1]: < 300 nM

O=C(NCc1ccccc1)c1cnc(Nc2cccc(Cl)c2)cc1C(F)(F)F [Example 2, 2-(3-Chlorophenylamino)-4-trifluoromethylpyridine-5-carboxylic acid benzylamide]
EC50: < 300 nM | Emax: > 50%

O=C(NCc1ccc(F)cc1)c1cnc(Nc2ccc(Cl)c(Cl)c2)cc1C(F)(F)F [Example 55, N-(4-Fluoro-benzyl)-6-(3,4-dichloro-phenylamino)-4-trifluoroinethyl-nicotinainide]
EC50: < 300 nM | Emax: > 50%

CC(C)c1cc(Nc2ccc(F)cc2Cl)ncc1C(=O)NCc1ccc(F)cc1 [Example 71, 6-(2-Chloro-4-fluoro-phenylamino)-N-(4-fluoro-benzyl)-4-isopropyl-nicotinamide]
EC50: < 300 nM | Emax: > 50%

CC(C)c1cc(Nc2cccc(Cl)c2)ncc1C(=O)NCc1ccc(C(N)=O)cc1 [Example 8, N-(4-Carbamoyl-benzyl)-6-(3-chloro-phenylamino)-4-isopropyl-nicotinamide]
EC50 [1]: 300 to 1000 nM

O=C(NCc1ccnc(F)c1)c1cnc(Nc2cccc(Cl)c2Cl)cc1C(F)(F)F [Example 50, N-(2-Fluoro-pyridin-4-ylmethyl)-6-(2,3-dichloro-phenylamino)-4-trifluoromethyl-nicotinamide]
EC50: < 300 nM | Emax: > 50%

O=C(NCc1ccncc1)c1cnc(Nc2cccc(Cl)c2)cc1C(F)(F)F [Example 1, 2-(3-Chlorophenylamino)-4-trifluoromethylpyridine-5-carboxylic acid (pyridin-4-ylmethyl) amide]
EC50: < 300 nM | Emax: > 50%

CC(C)c1cc(Nc2cccc(C#N)c2)ncc1C(=O)NCc1ccc(F)cc1 [Example 19, 6-(3-Cyano-phenylamino)-N-(4-fluoro-benzyl)-4-isopropyl-nicotinamide]
EC50 [1]: < 300 nM

CC(C)c1cc(Nc2cccc(Cl)c2F)ncc1C(=O)NCc1ccc(F)cc1 [Example 26, 6-(3-Chloro-2-fluoro-phenylamino)-N-(4-fluoro-benzyl)-4-isopropyl-nicotinamide]
EC50: 300 to 1000 nM | Emax: > 50%

CC(C)c1cc(Nc2cccc(F)c2)ncc1C(=O)NCc1ccc(F)cc1 [Example 17, N-(4-Fluoro-benzyl)-6-(3-fluoro-phenylamino)-4-isopropyl-nicotinamide]
EC50: < 300 nM | Emax: > 50%

CC(C)c1cc(Nc2ccc(Br)cc2F)ncc1C(=O)NCc1ccc(F)cc1 [Example 31, 6-(4-Bromo-2-fluoro-phenylamino)-N-(4-fluoro-benzyl)-4-isopropyl-nicotinamide]
EC50 [1]: 300 to 1000 nM
